Ki data for 24 compounds are collected here from patent publication US7157487B2, “Vla-4 inhibitors” (Daiichi Pharmaceutical Co., Ltd., priority 2000, dated 2007).

What is called Ki is a dissociation constant, usually derived from enzyme kinetics or from competition with a known ligand.

In this assay the target is T1, integrins haα4 and β1 (VLA-4) expressed on CHO cells (Homo sapiens, UniProt P05556+P13612).
T1 construct: expressed in transfected cells; host or cells: CHO cells
T1 sequence (P13612 34-1032): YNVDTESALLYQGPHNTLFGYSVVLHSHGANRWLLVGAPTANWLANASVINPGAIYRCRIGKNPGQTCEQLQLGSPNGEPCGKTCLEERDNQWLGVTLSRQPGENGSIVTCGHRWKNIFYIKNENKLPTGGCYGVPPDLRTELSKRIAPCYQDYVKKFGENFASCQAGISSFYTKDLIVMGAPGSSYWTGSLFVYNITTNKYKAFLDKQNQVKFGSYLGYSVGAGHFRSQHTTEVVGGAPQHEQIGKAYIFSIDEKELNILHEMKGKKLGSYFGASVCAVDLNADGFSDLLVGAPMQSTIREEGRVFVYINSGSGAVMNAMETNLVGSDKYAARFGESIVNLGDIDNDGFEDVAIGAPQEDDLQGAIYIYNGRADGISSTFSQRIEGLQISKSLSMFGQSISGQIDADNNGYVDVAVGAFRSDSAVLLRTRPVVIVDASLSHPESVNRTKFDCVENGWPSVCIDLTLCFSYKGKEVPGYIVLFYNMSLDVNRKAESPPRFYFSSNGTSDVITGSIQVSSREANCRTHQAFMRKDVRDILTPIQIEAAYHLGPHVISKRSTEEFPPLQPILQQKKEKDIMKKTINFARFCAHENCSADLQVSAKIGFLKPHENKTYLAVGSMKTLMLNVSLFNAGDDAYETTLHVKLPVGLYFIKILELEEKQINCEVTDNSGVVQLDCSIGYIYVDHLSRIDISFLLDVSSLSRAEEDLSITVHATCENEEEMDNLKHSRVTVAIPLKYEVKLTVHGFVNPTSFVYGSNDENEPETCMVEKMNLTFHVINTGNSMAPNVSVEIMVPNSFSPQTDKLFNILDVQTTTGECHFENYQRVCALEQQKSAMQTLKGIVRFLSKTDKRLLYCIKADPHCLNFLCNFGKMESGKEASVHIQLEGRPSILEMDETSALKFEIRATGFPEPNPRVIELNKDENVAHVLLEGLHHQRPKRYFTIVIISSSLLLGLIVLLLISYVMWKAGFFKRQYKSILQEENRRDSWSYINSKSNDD
T1 sequence (P05556 21-798): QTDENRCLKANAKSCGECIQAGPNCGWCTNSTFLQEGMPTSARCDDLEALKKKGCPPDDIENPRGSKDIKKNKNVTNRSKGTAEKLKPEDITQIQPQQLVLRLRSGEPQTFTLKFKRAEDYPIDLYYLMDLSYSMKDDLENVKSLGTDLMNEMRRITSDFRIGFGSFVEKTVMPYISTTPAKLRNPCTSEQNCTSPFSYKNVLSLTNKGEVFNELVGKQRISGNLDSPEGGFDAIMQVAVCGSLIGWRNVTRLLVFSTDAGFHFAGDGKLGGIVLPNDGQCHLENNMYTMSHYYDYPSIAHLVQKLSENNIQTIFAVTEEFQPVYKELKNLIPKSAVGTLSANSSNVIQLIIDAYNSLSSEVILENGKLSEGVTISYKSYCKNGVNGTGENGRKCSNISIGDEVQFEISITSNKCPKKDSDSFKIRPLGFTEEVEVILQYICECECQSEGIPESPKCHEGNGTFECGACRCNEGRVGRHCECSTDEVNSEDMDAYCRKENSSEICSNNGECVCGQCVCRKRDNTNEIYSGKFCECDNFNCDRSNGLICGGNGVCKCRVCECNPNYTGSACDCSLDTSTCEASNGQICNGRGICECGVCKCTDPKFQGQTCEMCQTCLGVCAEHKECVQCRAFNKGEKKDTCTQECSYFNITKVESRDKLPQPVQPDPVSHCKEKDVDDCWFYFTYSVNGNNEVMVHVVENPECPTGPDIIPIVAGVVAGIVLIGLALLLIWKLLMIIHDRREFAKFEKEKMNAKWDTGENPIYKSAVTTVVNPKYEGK
In words: In vitro Evaluation Test (1): binding of Eu3+-hVCAM-1 D1D7-IgG to CHO cells expressing integrins α4 and β1. The following applies: inhibition of Eu3+-hVCAM-1 D1D7-IgG binding to CHO cells expressing α4β1; Ki calculated from IC50. Here is the method: CHO cells forcedly expressed by the transduction of integrins haα4 and β1 were seeded in a Coster 3599 plate (3×10^4 cells/100 μl/well) and they were cultured for 2 days. After the medium was washed with buffer A* twice, 50 μl/well of Eu^3+-hVCAM-1 D1D7-IgG diluted to […] with an assay buffer ** was added. To the resulting well was added 50 μl/well of a test compound diluted with 2% DMS0-assay buffer (in the presence or absence of 6% human serum albumin) (to a well subjected to Scatchard analysis was added a solution diluted in another manner). After stirring for 5 minutes on a plate mixer, the plate was allowed to stand at room temperature for 1 hour. Then, the plate was washed four times with the buffer A and added with 100 μl/well of an enhancement reagent (DELFIA). The plate was shaken for 5 minutes on a plate mixer, followed by measurement of fluorescence intensity by a time-resolved fluorometer (DELFIA Wallac). From the binding ratio available by the following calculation formula: ((FT−FNS)−(FI−FNS))/(FT−FNS)×100, the IC50 (concentration inhibiting 50% of binding of CHO cells with hVCAM-1 D1D7-IgG) of the test compound was determined. In the above formula, FT means the fluorescence intensity of the well free of the test compound, FNS means the fluorescence intensity of the well free of the test compound and anti-hα4 antibody (SG/73), and FI means the fluorescence intensity of the well containing the test compound. The Kd indicating the binding strength and Bmax (maximum binding) were estimated within a range of 0.06 to 20 nM in accordance with the Scatchard analysis method.
The value Ki was calculated based on:
[formula] ((L) means a ligand concentration). (* buffer A: 25 mM HEPES (pH 7.5), 150 mM NaCl, 1 mM Ca^2+, 1 MM Mg^2+, 4 mM Mn^2+; ** assay buffer: 25 mM HEPES (pH 7.5), 150 mM NaCl, 1 mM Ca^2+, 1 mM Mg^2+, 4 mM Mn^2+, 0.1% BSA, 20 μM DTPA, with/without 6% ALBUMIN, HUMAN SERUM (C/N A-1653, SIGMA)) In vitro Evaluation Test (2)
As for `COC[C@H]1C[C@@H](CO[C@H]2CC[C@H](C(=O)O)CC2)N(C(=O)Cc2ccc3nc(Nc4cc(F)ccc4C)oc3c2F)C1` [Example 140, trans-4-(1-(7-Fluoro-2-(5-fluoro-2-methylphenylamino)-6-benzoxazolylacetyl)-(4S)-methoxymethyl-(2S)-pyrrolidinylmethoxy)cyclohexanecarboxylic acid], the Ki was 1.8 nM.
For `Cc1ccccc1Nc1nc2ccc(CC(=O)N3C[C@@H](F)C[C@H]3COC3CCC(C(=O)O)CC3)cc2o1` (single isomer, unassigned) [21 (Isomer G)] the value was 382 nM; for `Cc1ccccc1Nc1nc2ccc(CC(=O)N3C[C@@H](O)C[C@H]3COc3ccc(C(=O)O)cc3)cc2o1` [Example 8, 4-((2S,4S)-4-Hydroxy-1-(2-(2-methylphenylamino)-6-benzoxazolylacetyl)-2-pyrrolidinylmethoxy)benzoic acid], 24 nM; for `Cc1ccc(F)cc1Nc1nc2c(F)cc(CC(=O)N3C[C@@H](F)C[C@H]3CO[C@H]3CC[C@H](C(=O)O)CC3)cc2o1` [Example 47, trans-4-(1-((2-(5-Fluoro-2-methylphenylamino)-4-fluoro-6-benzoxazolyl)acetyl)-(4S)-fluoro-(2S)-pyrrolidinylmethoxy)cyclohexanecarboxylic acid], 5.8 nM.
For `COc1cc(CC(=O)N2C[C@@H](F)C[C@H]2CO[C@H]2CC[C@H](C(=O)O)CC2)ccc1NC(=O)c1cc2ccccc2[nH]1` [Example 78, trans-4-(1-((4-((2-Indolylcarbonyl)amino)-3-methoxyphenyl)acetyl)-(4S)-fluoro-(2S)-pyrrolidinylmethoxy)cyclohexanecarboxylic acid] the value was 14 nM; for `Cn1cc(C(=O)Nc2cc(F)c(CC(=O)N3C[C@@H](F)C[C@H]3CO[C@H]3CC[C@H](C(=O)O)CC3)cc2Cl)c2c(F)cccc21` [Example 75, trans-4-(1-((5-Chloro-2-fluoro-4-((4-fluoro-1-methyl-3-indolylcarbonyl)amino)phenyl)acetyl)-(4S)-fluoro-(2S)-pyrrolidinylmethoxy)cyclohexanecarboxylic acid], 21 nM.
For `O=C(Cc1ccc(Nc2nc3ccccc3s2)c(Cl)c1)N1C[C@@H](F)C[C@H]1CO[C@H]1CC[C@H](C(=O)O)CC1` [Example 56, trans-4-(1-(4-(2-Benzothiazolyl)amino-3-chlorophenylacetyl)-(4S)-fluoro-(2S)-pyrrolidinylmethoxy)cyclohexanecarboxylic acid] the value was 2.1 nM; for `Cc1ccccc1Nc1nc2ccc(CC(=O)N3C[C@@H](F)C[C@H]3COC3CCC(C(=O)O)CC3)c(F)c2o1` (single isomer, unassigned) [26 (Isomer A)], 2 nM; for `Cn1cc(-c2nc3ccc(CC(=O)N4C[C@@H](F)C[C@H]4CO[C@H]4CC[C@H](C(=O)O)CC4)cc3o2)c2ccc(F)cc21` [Example 99, trans-4-(1-((2-(6-Fluoro-1-methyl-3-indolyl)-6-benzoxazolyl)acetyl)-(4S)-fluoro-(2S)-pyrrolidinylmethoxy)cyclohexanecarboxylic acid], 17 nM.
Consider `O=C(Cc1ccc2nc(-c3nccc4ccccc34)oc2c1)N1C[C@@H](F)C[C@H]1CO[C@H]1CC[C@H](C(=O)O)CC1` [Example 102, trans-4-(1-(2-(1-Isoquinolinyl)-6-benzoxazolylacetyl)-(4S)-fluoro-(2S)-pyrrolidinylmethoxy)cyclohexanecarboxylic acid], for which the Ki is 47 nM.
Then `Cn1cc(C(=O)Nc2ccc(CC(=O)N3C[C@@H](F)C[C@H]3COc3ccc(C(=O)O)cn3)cc2Cl)c2ccccc21` [Example 150, 6-(1-(3-Chloro-4-(1-methyl-3-indolyl)carbonylaminophenylacetyl)-(4S)-fluoro-(2S)-pyrrolidinylmethoxy)nicotinic acid], with 10 nM; and `CC(=O)N(C)[C@H]1C[C@@H](CO[C@H]2CC[C@H](C(=O)O)CC2)N(C(=O)Cc2cc(Cl)c(NC(=O)c3cn(C)c4ccccc34)cc2F)C1` [Example 142, trans-4-(1-((5-Chloro-2-fluoro-4-(1-methyl-3-indolylcarbonylamino)phenyl)acetyl)-(4S)-(N-methylacetamido)-(2S)-pyrrolidinylmethoxy)-1-cyclohexanecarboxylic acid], with 18 nM; and `CS[C@H]1C[C@@H](CO[C@H]2CC[C@H](C(=O)O)CC2)N(C(=O)Cc2ccc3nc(Nc4cc(F)ccc4C)oc3c2F)C1` [Example 126, trans-4-(1-((2-(5-Fluoro-2-methylphenylamino)-7-fluoro-6-benzoxazolyl)acetyl)-(4S)-methylthio-(2S)-pyrrolidinylmethoxy)cyclohexanecarboxylic acid], with 2 nM.
For the compound `O=C(Nc1ccc(CC(=O)N2C[C@@H](F)C[C@H]2COC2CCC(C(=O)O)CC2)cc1Cl)c1c[nH]c2ccccc12` (stereo partly drawn) [Example 38, 4-(1-(3-Chloro-4-(3-indolylcarbonylamino)phenylacetyl)-(4S)-fluoro-(2S)-pyrrolidinylmethoxy)cyclohexanecarboxylic acid], the Ki was 0.43 nM.
`Cc1ccccc1Nc1nc2ccc(CC(=O)N3CC[C@@H](Oc4ccc(C(=O)O)cc4)C3)cc2o1` [Example 34, 4-(1-(2-(2-Methylphenylamino)-6-benzoxazolylacetyl)-(3R)-pyrrolidinyloxy)benzoic acid]: the inhibition constant Ki is 26 nM.
For the compound `COC[C@@H]1CC[C@@H](CO[C@H]2CC[C@H](C(=O)O)CC2)N1C(=O)Cc1cc(Cl)c(NC(=O)c2nn(C)c3ccccc23)cc1F` [Example 168, trans-4-(1-((5-Chloro-2-fluoro-4-((1-methyl-3-indazolyl)carbonyl)aminophenyl)acetyl)-(5S)-methoxymethyl-(2S)-pyrrolidinylmethoxy)cyclohexanecarboxylic acid], the inhibition constant Ki was 59 nM.
For `O=C(Cc1ccc(Nc2nc3c(Cl)cccc3s2)c(Cl)c1)N1C[C@@H](F)C[C@H]1CO[C@H]1CC[C@H](C(=O)O)CC1` [Example 60, trans-4-(1-(4-(4-Chloro-2-benzothiazolyl)amino-3-chlorophenylacetyl)-(4S)-fluoro-(2S)-pyrrolidinylmethoxy)cyclohexanecarboxylic acid] the value was 6.3 nM.
Then `Cc1ccccc1Nc1nc2ccc(CC(=O)N3C[C@H](O)C[C@H]3CO[C@H]3CC[C@H](C(=O)O)CC3)cc2o1` [Example 122, trans-4-((4R)-Hydroxy-1-((2-(2-methylphenylamino)-6-benzoxazolyl)acetyl)-(2S)-pyrrolidinylmethoxy)cyclohexanecarboxylic acid], with 29 nM.
Then `O=C(Cc1ccc2nc(N3CCc4ccccc43)oc2c1F)N1C[C@@H](F)C[C@H]1CO[C@H]1CC[C@H](C(=O)O)CC1` [Example 105, trans-4-(1-((7-fluoro-2-(1-indolinyl)-6-benzoxazolyl)acetyl)-(4S)-fluoro-(2S)-pyrrolidinylmethoxy)cyclohexanecarboxylic acid], with 42 nM.
Turning to `Cn1cc(C(=O)Nc2ccc(CC(=O)N3C[C@@H](F)C[C@H]3CO[C@H]3CC[C@H](C(=O)O)CC3)nc2Cl)c2ccccc21` [Example 69, trans-4-(1-(2-Chloro-3-((1-methyl-3-indolylcarbonyl)amino)-6-pyridyl)acetyl)-(4S)-fluoro-(2S)-cyclohexanecarboxylic acid], the Ki is 34 nM.
For `Cn1cc(C(=O)Nc2cc(F)c(CC(=O)N3CC[C@@H](CO[C@H]4CC[C@H](C(=O)O)CC4)C3)cc2Cl)c2ccccc21` [Example 163, trans-4-(1-(5-Chloro-2-fluoro-4-(1-methyl-3-indolyl)carbonylaminophenylacetyl)-(3R)-pyrrolidinylmethyloxy)cyclohexanecarboxylic acid] the value was 39 nM; for `Cc1ccc(F)cc1Nc1nc2ccc(CC(=O)N3C[C@@H](F)C[C@H]3COc3ccc(C(=O)O)cc3)cc2o1` [Example 146, 4-(1-((2-(5-Fluoro-2-methylphenylamino)-6-benzoxazolyl)acetyl)-(4S)-fluoro-(2S)-pyrrolidinylmethoxy)benzoic acid], 21 nM; for `Cc1ccc(F)cc1Nc1nc2ccc(CC(=O)N(C)[C@@H](C)CO[C@H]3CC[C@H](C(=O)O)CC3)c(F)c2o1` [Example 145, trans-4-((2S)-((7-Fluoro-2-((5-fluoro-2-methylphenyl)amino)-6-benzoxazolyl)-N-methylacetamido)-1-propoxy)-1-cyclohexanecarboxylic acid], 18 nM.
For `Cc1ccccc1Nc1nc2ccc(CC(=O)N3C[C@@H](F)C[C@H]3CNc3ccc(C(=O)O)cc3)cc2o1` [Example 33, 4-(1-(2-(2-Methylphenylamino)-6-benzoxazolylacetyl)-(4S)-fluoro-(2S)-pyrrolidinylmethylamino)benzoic acid] the value was 31 nM.
